These results are taken from patent US20080089851A1, “Brown Algae Cell Lyophilisate, Method For The Obtention Thereof” (BIOTECHMARINE, priority 2005, published 2008).

“And” between values parts separate entries of the source, which are not always exact repeats. Equal entries are not always repeated.

Assay [1] has as its system reconstructed melanized human epidermis. The assay can be described thus: Pigmentation test: biochemical quantification of the melanic content. The format is cell-based. Conditions: α-MSH 100 nM. The protocol: 1. —Materials and Methods
The BB product is diluted in ethanol then incorporated into a cosmetic formulation.
a—BB product incorporated in formulation at 0.05%
b—BB product incorporated in formulation at 0.15%
c—BB product incorporated in formulation at 0.30%
They are conserved at 4° C. until use thereof.
2. —Biochemical Assessment
At the end of the incubation, the melanin contained in cell lysates was quantified by a spectrophotometrical method. A range of melanin was carried out in parallel with the assay.
The results are expressed in […] of melanin per ml of lysate of the cell carpets (average +/−standard deviation SD).
The statistical significance of the observed differences between the conditions <<treated >> and <<controls >> was assessed by variance analysis to a factor (One Way ANOVA) followed by a test of Bonferroni t-test (*:p<0.05;**:p<0.01).

Assay [2] relates to reconstructed melanized human epidermal skins. Briefly: Pigmentation test: melanic content by image analysis (Fontana Masson). The format is cell-based. The conditions noted are these: WITHOUT UV; α-MSH 100 nM. The protocol:
3. —Histological Assessment
The epidermis skins ware fixed in formaldehyde from the end of incubation, then embedded in paraffin blocs. Subsequently sections of 4 μm thickness were cut.
Said slides by condition were carried out with a magnification ×400. The visualisable melanin on these slides was quantified by image analysis using the Image J program.
The results are expressed in form of the surface occupied by the melanin (number of pixels the grey scale of which is between 0 and 100; 0=black/255=white) in each slide (average +/−standard deviation, SD).
The statistical significance of the noted differences between the treated conditions and controls was assessed by a Student's test (*: p<0.05, **: p<0.01; ***: p<0.001).

With α-MSH, in assay [1] (+UVA), the “Melanin, % medium alone” value worked out at 141%; the “Melanin, Average” value amounted to 96.1 µg/mL; the “Melanin, single values” was 95.6 µg/mL and 84.7 µg/mL and 107.9 µg/mL. In addition, in assay [1] (+UVB), the “Melanin, % medium alone” value was 128%; the “Melanin, Average” value stood at 106.5 µg/mL; the “Melanin, single values” is 99.5 µg/mL and 115.5 µg/mL and 104.6 µg/mL. Also, in assay [1] (WITHOUT UV), the “Melanin, % medium alone” value is reported as 141%; the “Melanin, Average” value was 80.7 µg/mL; the “Melanin, single values” was 70.3 µg/mL and 86.9 µg/mL and 85 µg/mL. Also, in assay [2], the “Surface occupied by the melanin, % medium alone” value turned out to be 208% and the “Surface occupied by the melanin, Average” value was 40277.8 pixels.
